Tests used:
Format in all cases: biochemical
[1] = molecular target: T1, BRAF-GTP-KRAS-G12C complex (Homo sapiens, UniProt P01116, G12C); assay: KRAS-BRAF complex disruption TR-FRET without CYPA (presenter dependence)
T1 construct: 50 nM of His6-KRas G12C-GTP (1-169)
Method: (§1) In this example, TR-FRET was used to measure the compound-facilitated disruption of a KRAS-BRAF complex. A mixture of tagless Cyclophilin A, His6-KRAS G12C-GMP-PNP, and GST-BRAF RAS binding domain was added to a 384-well assay plate containing compounds of the invention and incubated for 3 hours. A mixture of Anti-His Eu-W1024 and anti-GST allophycocyanin was then added and the reaction was incubated for an additional 1.5 hours. TR-FRET signal was read on an EnVision microplate reader (Perkin Elmer, Ex 320 nm, Em 665/615 nm). Compounds that facilitate disruption of a KRAS_BRAF complex were identified as those eliciting a decrease in the TR-FRET ratio relative to DMSO control wells. To determine the presenter-dependence of the compound-mediated KRAS-BRAF complex disruption, Cyclophilin A was left out of the initial incubation (see Table 5). To determine G12C specificity of the compound-mediated KRAS-BRAF complex disruption, wild-type KRAS was used instead of G12C KRAS (see Table 5).
(§2) Reagents and Instrument • Tagless CYPA; 519 μM in PBS buffer, pH 7.4 • GST BRAF; 110 μM in PBS buffer, pH 7.4 • His6-KRASG12C-GMP-PNP; 50 μM in PBS buffer, pH 7.4 • His6-KRASWT-GMP-PNP; 40 μM in PBS buffer, pH 7.4 • Anti-His Eu-W1024 (LANCE® Eu-W1024; Perkin Elmer) • Anti-GST allophycocyanin (Anti-GST IgG conjugated to SureLight®-Allophycocyanin; Perkin Elmer; Product Number AD0059G) • Test compounds, 10 mM in 100% DMSO • EnVision (Perkin Elmer) • Combi MultiDrop liquid dispenser with 8-channel small volume cassette • 384-well ProxiPlate (black)
(§3) Experimental Protocol • 1. Use Mosquito to dispense 100 nL/well of compounds (varying concentration in […]) into 384-well black ProxiPlate to make assay-ready-plate (ARP). • 2. Make assay buffer containing 25 mM Hepes pH 7.3, 100 mM NaCl, 5 mM MgCl2, 0.05% BSA, and 0.002% Tween-20. • 3. Make PRE-MIX A: delivers final concentrations of 50 nM of His6-KRas G12C-GTP (1-169) and 500 nM of tagless CypA (1-165) in assay buffer. • a. […] Read on EnVision (Ex: 320 nm; Em1: 615 nm; Em2: 665 nm). • 8. […]

BRAF-GTP-KRASWT complex = molecular target: T2, BRAF-GTP-KRASWT complex (Homo sapiens, UniProt P01116+P62937); assay: KRAS-BRAF complex disruption TR-FRET with wild-type KRAS (G12C specificity); details: with CYPA
T2 construct: substitute His6-KRas WT-GTP (1-169) for His6-KRas G12C-GTP (1-169); 500 nM of tagless CypA (1-165)
Method: as §1, §2, §3

KRAS-G12C = molecular target: T3, KRAS-G12C (Homo sapiens, UniProt P01116+P62937, G12C); assay: Percentage of crosslinking to KRAS-G12C in the presence of BME and CYPA (TOF-MS); details: 5 min incubation; compound 2 μM, CypA 5 μM, G12C-GMPNP 0.5 μM, BME
T3 construct: CypA 1-165 (final concentration 5 μM)
Method: • 1. 10×Incubation buffer: 125 mM HEPES pH 7.4, 750 mM NaCl, 10 mM MgCl2 • 2. 50 μM Protein A stock (CypA) in incubation buffer • 3. 5 μM Protein B (G12C-GMPNP) stock in incubation buffer • 4. 20 μM compound stock in 1×Incubation buffer with 10% DMSO • 5. 25 mM BME stock solution (prepared by diluting the BME stock in Milli Q water)
CypA 1-165 (final concentration 5 μM), test compound (final concentration 2 μM) and G12C-GMPNP (final concentration 0.5 μM) were incubated in the incubation buffer ([…]) for the requisite amount of time at room temperature. The samples were quenched with formic acid, final concentration 0.5%. 10 μL aliquots were injected to TOF-MS.
Sequence of Addition for a Final Incubation Volume of 50 μL • 1. 5 μL 10×incubation buffer • 2. 28 ul H2O • 3. 2 μL from 25 mM BME stock • 4. 5 μL CypA at 50 uM • 5. 5 μL from 5 μM G12C-GMPNP • 6. 5 μL compound from 20 μM compound stock
LC-MS is performed on an Agilent 6230 TOF-LC mass spectrometer equipped with an electrospray probe operated in positive ionization mode. 10 μL samples are injected on a Sepax Bio-C4, 300 Å, 2.1×100 mm column. The mobile phase is 0.1% (vol/vol) formic acid and 0.1% 1 mM ammonium formate in 95% water, 4.8% acetonitrile (A) and 0.1% (vol/vol) formic acid and 0.1% 1 mM ammonium formate in 95% acetonitrile and 4.8% water (B). The separation is performed by a 9 min total gradient consisting of 5 min linear gradient from 25% to 50% B, and a wash at 100% B for 1.25 min, all at a flow rate of 0.6 mL/min (see attached timetable below). Mass spectrometer source conditions were capillary voltage, 4,000 V; cone voltage, 120 V; source temperature, 275° C.; scan range, 100-2,000 a.m.u. with a cycle time of 1 s.
The observed mass is generated by averaging the major peak in the total ion current (TIC). The charge-state series of the species are deconvoluted using Agilent MassHunter Bioconfirm using maximum entropy setting (range is set to 17000-23000 Da). […]

| SMILES | IC50 [1] | IC50 (BRAF-GTP-KRASWT complex) | % Crosslinking with KRAS-G12C-GTP in presence of CYPA, 5 min incubation (KRAS-G12C) |
| --- | --- | --- | --- |
| CC1COC(=O)C2CCCN(N2)C(=O)C(NC(=O)C(C(C)C)N(C)C(=O)C2CN(C(=O)CCl)C2)Cc2cc(O)cc(c2)-c2ccc3c(S(C)(=O)=O)cn(c3c2)C1 (single isomer, unassigned) [Compound 110] | > 30 µM | > 30 µM | 83% |
| CC1COC(=O)C2CCCN(N2)C(=O)C(NC(=O)C(C(C)C)N(C)C(=O)C2CN(C(=O)CCl)C2)Cc2cc(O)cc(c2)-c2ccc3c(c2)c(cn3CC2COC2)C1 (mixture of isomers) [Compound 226] | > 30 µM | > 30 µM | 27% |

Reference: patent US20240139185A1, “COMPOUNDS THAT PARTICIPATE IN COOPERATIVE BINDING AND USES THEREOF” (Revolution Medicines, Inc., priority 2018, published 2024)
